Reference: ChEMBL document CHEMBL1201862, “PubChem BioAssay data set” (2004)
“And” between values parts separate entries of the source, which are not always exact repeats. Equal values may be shown once.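 96-well plates; 48 h exposure; 5 concentrations. Endpoints by linear interpolation between flanking doses. Not reached: highest tested concentration assigned. GI50 is the concentration that inhibits growth by half.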 The source made the active and inactive calls. Rule as the data show it: active = GI50 up to about 1.1 µM and inactive = higher.

Legend:
Assay in all cases: NCI anticancer screen, dose series, 48 h
UACC-257 = system: UACC-257
SF-539 = system: SF-539
CCRF-CEM = system: CCRF-CEM
TK-10 = system: TK-10
RXF 393 = system: RXF 393
HOP-18 = system: HOP-18
HCT-116 = system: HCT-116
LXFL 529 = system: LXFL 529
HL-60 = system: HL-60
786-0 = system: 786-0
NCI-H226 = system: NCI-H226
HCT-15 = system: HCT-15
IGROV-1 = system: IGROV-1
KM12 = system: KM12
EKVX = system: EKVX
ACHN = system: ACHN
A549 = system: A549
LOX IMVI = system: LOX IMVI

SMILES	GI50 (UACC-257)	GI50 (SF-539)	GI50 (CCRF-CEM)	GI50 (TK-10)	GI50 (RXF 393)	GI50 (HOP-18)	GI50 (HCT-116)	GI50 (LXFL 529)	GI50 (HL-60)	GI50 (786-0)	GI50 (NCI-H226)	GI50 (HCT-15)	GI50 (IGROV-1)	GI50 (KM12)	GI50 (EKVX)	GI50 (ACHN)	GI50 (A549)	GI50 (LOX IMVI)
O=c1[nH]ccc(CNC23CC4CC(CC(C4)C2)C3)c1O	> 100 µM (inactive)	> 100 µM (inactive)	41.5 µM (inactive)	> 100 µM (inactive)	48.4 µM (inactive)	> 100 µM (inactive)	> 100 µM (inactive)	> 100 µM (inactive)	41.3 µM (inactive)	> 100 µM (inactive)	> 100 µM (inactive)	41.8 µM	> 100 µM (inactive)	> 100 µM (inactive)	80.4 µM (inactive)	93.5 µM (inactive)	> 100 µM (inactive)	
NC(=O)COC(=O)c1c(Cl)nc2sccn12	> 100 µM (inactive)	> 100 µM (inactive)	> 31.6 µM (inactive)	> 100 µM (inactive)		> 100 µM (inactive)	> 31.6 µM (inactive)	> 65.5 µM (inactive)	> 46 µM (inactive)	19.1 µM (inactive)	> 100 µM (inactive)	> 40.3 µM	> 100 µM (inactive)	> 100 µM (inactive)	> 100 µM (inactive)	> 100 µM (inactive)	> 100 µM (inactive)	> 75.5 µM (inactive)
CC(C)(Oc1ccc(C(=O)c2ccc(Cl)cc2)cc1Cl)C(=O)N1CCN(c2ccccc2)CC1	43.7 µM (inactive)	> 100 µM (inactive)	> 100 µM (inactive)	> 100 µM (inactive)		> 100 µM (inactive)	82.2 µM (inactive)	> 100 µM (inactive)	60.8 µM (inactive)	> 100 µM (inactive)		> 100 µM	> 100 µM (inactive)	> 100 µM (inactive)	> 100 µM (inactive)		58.5 µM (inactive)	> 100 µM (inactive)
COc1cc2c(c(OC)c1OC)-c1ccc(SC)c(=O)cc1[C@@H](NC(=O)c1ccc(Cl)cc1)CC2	< 0.01 µM (active)	< 0.01 µM (active)	< 0.01 µM (active)	2.36 µM (inactive)	< 0.01 µM (active)		< 0.01 µM (active)	< 0.01 µM (active)	< 0.01 µM (active)	< 0.01 µM (active)	< 0.01 µM (active)	< 0.01 µM	< 0.01 µM (active)			< 0.01 µM (active)	< 0.01 µM (active)	< 0.01 µM (active)
CC(C)(C)C1=CC(=NNC(=S)NCc2ccccc2)C=C(C(C)(C)C)C1=O	91.6 µM (inactive)	> 100 µM (inactive)	52.1 µM (inactive)	> 100 µM (inactive)	78.9 µM (inactive)		60.5 µM (inactive)	63.1 µM (inactive)	> 100 µM (inactive)	55.6 µM (inactive)	78.5 µM (inactive)	> 100 µM	> 100 µM (inactive)		89.3 µM (inactive)	67.1 µM (inactive)	42.7 µM (inactive)	73.8 µM (inactive)
COc1ccc(Br)c(N/N=C2\CCCNC2=O)c1	> 100 µM (inactive)	95.5 µM (inactive)	> 100 µM (inactive)	57 µM (inactive)		39.6 µM (inactive)	> 100 µM (inactive)	> 100 µM (inactive)	68.5 µM (inactive)	> 100 µM (inactive)	> 100 µM (inactive)	> 100 µM	96.4 µM (inactive)	> 100 µM (inactive)	22.6 µM (inactive)	40.4 µM (inactive)	> 100 µM (inactive)	> 100 µM (inactive)
C[C@]12CCC[C@H](O)[C@H]1C[C@H](CO)CC2	> 100 µM (inactive)	> 100 µM (inactive)	> 100 µM (inactive)	> 100 µM (inactive)		> 100 µM (inactive)	> 100 µM (inactive)	> 100 µM (inactive)	> 100 µM (inactive)	> 100 µM (inactive)	> 100 µM (inactive)	> 100 µM	> 100 µM (inactive)	> 100 µM (inactive)		> 100 µM (inactive)	> 100 µM (inactive)	> 100 µM (inactive)
C=CCc1cc2cccc(OC)c2oc1=O	> 100 µM (inactive)	> 100 µM (inactive)	45.2 µM (inactive)	> 100 µM (inactive)		73.6 µM (inactive)	> 100 µM (inactive)	57 µM (inactive)	34.8 µM (inactive)	> 100 µM (inactive)	> 100 µM (inactive)	> 100 µM	> 100 µM (inactive)	> 100 µM (inactive)	44.3 µM (inactive)	> 100 µM (inactive)	> 100 µM (inactive)	93.3 µM (inactive)
CCOC(=O)C1=C(NC(C)(C)C)OCC1=O	> 100 µM (inactive)	> 100 µM (inactive)		> 100 µM (inactive)			> 100 µM (inactive)	> 100 µM (inactive)	> 100 µM (inactive)	> 100 µM (inactive)	> 100 µM (inactive)	> 100 µM	> 100 µM (inactive)	> 100 µM (inactive)		> 100 µM (inactive)	> 100 µM (inactive)	> 100 µM (inactive)
COc1ccc2cc1Oc1ccc(cc1)C[C@H]1c3cc(c(OC)cc3CCN1C)Oc1c(OC)c(OC)cc3c1[C@H](C2)N(C)CC3 [FANCHININ]	43.1 µM (inactive) and 5.79 µM (inactive)	20.1 µM (inactive) and 4.78 µM (inactive)	33 µM (inactive) and 3.54 µM (inactive)	22.9 µM (inactive) and 8.41 µM (inactive)	5.08 µM (inactive)	9.42 µM (inactive)	4.5 µM (inactive) and 50.5 µM (inactive)		7.8 µM (inactive) and 99.5 µM (inactive)	3.05 µM (inactive) and 43.5 µM (inactive)		7.78 µM	9.2 µM (inactive) and 49.2 µM (inactive)			7.93 µM (inactive) and 17.1 µM (inactive)		
COC(=O)/N=C(\NC(=O)OC)Nc1ccc(Oc2ccccc2)cc1NC=O	2.48 µM (inactive)	0.433 µM (active)	0.692 µM (active)	9.57 µM (inactive)		> 100 µM (inactive)	0.49 µM (active)	0.667 µM (active)	0.206 µM (active)	0.483 µM (active)	0.977 µM (active)		1.62 µM (inactive)	0.466 µM (active)	89.5 µM (inactive)	0.881 µM (active)	0.597 µM (active)	1.97 µM (inactive)
O=C(O)/C(Cl)=C(\Cl)C(=O)Nc1ccc(Cl)c(Cl)c1Cl	18.5 µM (inactive)	19.1 µM (inactive)	37.2 µM (inactive)	16.8 µM (inactive)		16.3 µM (inactive)	11.8 µM (inactive)	20.1 µM (inactive)	21.4 µM (inactive)	18.2 µM (inactive)	17.5 µM (inactive)	19.4 µM	20.7 µM (inactive)	19.4 µM (inactive)	22.6 µM (inactive)	18.1 µM (inactive)	18.5 µM (inactive)	17.4 µM (inactive)
C=C1C2CCCC1C1(S(C)(=O)=O)CCCCC21O (centres undefined)	> 100 µM (inactive)	> 100 µM (inactive)		> 100 µM (inactive)		> 100 µM (inactive)	> 100 µM (inactive)	> 100 µM (inactive)		> 100 µM (inactive)	> 100 µM (inactive)	> 100 µM	> 100 µM (inactive)	> 100 µM (inactive)	> 100 µM (inactive)	> 100 µM (inactive)	> 100 µM (inactive)	
CCN(CC)CCNc1ccc2nc(C)n3c4ccc(O)cc4c(=O)c1c23	8.63 µM (inactive)	1.79 µM (inactive)					0.357 µM (active)	0.78 µM (active)	0.286 µM (active)	0.381 µM (active)	0.16 µM (active)	0.64 µM	1.38 µM (inactive)	3.02 µM (inactive)		0.231 µM (active)	0.179 µM (active)	0.71 µM (active)
CC1(C)SCc2nc3ncccc3n21	> 100 µM (inactive)	> 100 µM (inactive)	> 100 µM (inactive)	> 100 µM (inactive)	> 100 µM (inactive)			> 100 µM (inactive)	> 100 µM (inactive)	> 100 µM (inactive)	> 100 µM (inactive)	> 100 µM	> 100 µM (inactive)	> 100 µM (inactive)	> 100 µM (inactive)	> 100 µM (inactive)	> 100 µM (inactive)	> 100 µM (inactive)
O=C1CCC2(c3ccccc3)Nc3ccccc3N12 (centres undefined)	> 100 µM (inactive)	> 100 µM (inactive)	> 100 µM (inactive)	> 100 µM (inactive)	> 100 µM (inactive)			> 100 µM (inactive)	> 100 µM (inactive)	> 100 µM (inactive)	> 100 µM (inactive)	> 100 µM	> 100 µM (inactive)	> 100 µM (inactive)	> 100 µM (inactive)	> 100 µM (inactive)	> 100 µM (inactive)	> 100 µM (inactive)
CCC1OCCN1C(C)C (centres undefined)	97.5 µM (inactive)	> 100 µM (inactive)	> 100 µM (inactive)	42 µM (inactive)	> 100 µM (inactive)		89.9 µM (inactive)	> 100 µM (inactive)	> 100 µM (inactive)	> 100 µM (inactive)		81.1 µM	> 100 µM (inactive)	> 100 µM (inactive)	26.2 µM (inactive)	> 100 µM (inactive)	> 100 µM (inactive)	> 100 µM (inactive)
Sc1ncnc2c1ncn2C1CCCO1 (centres undefined)		> 100 µM (inactive)	> 100 µM (inactive)	89.5 µM (inactive)	> 100 µM (inactive)	> 100 µM (inactive)	55.5 µM (inactive)	> 100 µM (inactive)	> 100 µM (inactive)	> 100 µM (inactive)		> 100 µM	> 100 µM (inactive)	> 100 µM (inactive)		> 100 µM (inactive)	> 100 µM (inactive)	37.6 µM (inactive)
